Source: the supplement of paper PMC10307832

Key:
Assay in all cases: relative viability (nuclei count vs DMSO), 5 days (fraction); higher = more cells survive
NCI-H838 = system: NCI-H838
How it was run: (§1)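 Relative viability is defined as nuclei in treated wells over nuclei in vehicle wells. Duplicate plates were run and medians reported. Lung cancer cell lines in 1536-well plates were dosed by pin tool one day after seeding, with one drug or with a fixed anchor-drug dose plus five library-drug doses (not always all listed) in √10 steps, and nuclei were counted after 5 days.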

NCI-H2126 = system: NCI-H2126
How it was run: as §1

NCI-H522 = system: NCI-H522
How it was run: as §1

BEN = system: BEN
How it was run: as §1

NCI-H1993 = system: NCI-H1993
How it was run: as §1

NCI-H647 = system: NCI-H647
How it was run: as §1

NCI-H2347 = system: NCI-H2347
How it was run: as §1

LOU-NH91 = system: LOU-NH91
How it was run: as §1

NCI-H727 = system: NCI-H727
How it was run: as §1

NCI-H2087 = system: NCI-H2087
How it was run: as §1

LCLC-103H = system: LCLC-103H
How it was run: as §1

NCI-H650 = system: NCI-H650
How it was run: as §1

NCI-H441 = system: NCI-H441
How it was run: as §1

HCC-44 = system: HCC-44
How it was run: as §1

NCI-H1395 = system: NCI-H1395
How it was run: as §1

HARA = system: HARA
How it was run: as §1

EMC-BAC-2 = system: EMC-BAC-2
How it was run: as §1

201T = system: 201T
How it was run: as §1

NCI-H23 = system: NCI-H23
How it was run: as §1

NCI-H3122 = system: NCI-H3122
How it was run: as §1

NCI-H2023 = system: NCI-H2023
How it was run: as §1

NCI-H596 = system: NCI-H596
How it was run: as §1

Compound: Nc1ccn([C@@H]2O[C@H](CO)[C@@H](O)[C@@H]2O)c(=O)n1 [Cytarabine] + Cc1cc(Nc2cc(N3CCN(C)CC3)nc(Sc3ccc(NC(=O)C4CC4)cc3)n2)n[nH]1 [Tozasertib] (partner 0.1 µM)
- relative viability (NCI-H838; first compound 0.005 µM): 0.29
- relative viability (NCI-H838; first compound 0.01581 µM): 0.319
- relative viability (NCI-H838; first compound 0.05 µM): 0.231
- relative viability (NCI-H838; first compound 0.1581 µM): 0.231
- relative viability (NCI-H838; first compound 0.5 µM): 0.161
- relative viability (NCI-H2126; first compound 0.005 µM): 0.655
- relative viability (NCI-H2126; first compound 0.01581 µM): 0.774
- relative viability (NCI-H2126; first compound 0.05 µM): 0.607
- relative viability (NCI-H2126; first compound 0.1581 µM): 0.53
- relative viability (NCI-H2126; first compound 0.5 µM): 0.348
- relative viability (NCI-H522; first compound 0.005 µM): 0.556
- relative viability (NCI-H522; first compound 0.01581 µM): 0.5
- relative viability (NCI-H522; first compound 0.05 µM): 0.476
- relative viability (NCI-H522; first compound 0.1581 µM): 0.482
- relative viability (NCI-H522; first compound 0.5 µM): 0.572
- relative viability (BEN; first compound 0.005 µM): 0.427
- relative viability (BEN; first compound 0.01581 µM): 0.519
- relative viability (BEN; first compound 0.05 µM): 0.569
- relative viability (BEN; first compound 0.1581 µM): 0.63
- relative viability (BEN; first compound 0.5 µM): 0.563
- relative viability (NCI-H1993; first compound 0.005 µM): 0.631
- relative viability (NCI-H1993; first compound 0.01581 µM): 0.633
- relative viability (NCI-H1993; first compound 0.05 µM): 0.681
- relative viability (NCI-H1993; first compound 0.1581 µM): 0.534
- relative viability (NCI-H1993; first compound 0.5 µM): 0.564
- relative viability (NCI-H647; first compound 0.005 µM): 0.205
- relative viability (NCI-H647; first compound 0.01581 µM): 0.22
- relative viability (NCI-H647; first compound 0.05 µM): 0.0474
- relative viability (NCI-H647; first compound 0.1581 µM): 0.073
- relative viability (NCI-H647; first compound 0.5 µM): 0.0484
- relative viability (NCI-H2347; first compound 0.005 µM): 0.553
- relative viability (NCI-H2347; first compound 0.01581 µM): 0.427
- relative viability (NCI-H2347; first compound 0.05 µM): 0.444
- relative viability (NCI-H2347; first compound 0.1581 µM): 0.52
- relative viability (NCI-H2347; first compound 0.5 µM): 0.402
- relative viability (LOU-NH91; first compound 0.005 µM): 0.555
- relative viability (LOU-NH91; first compound 0.01581 µM): 0.53
- relative viability (LOU-NH91; first compound 0.05 µM): 0.672
- relative viability (LOU-NH91; first compound 0.1581 µM): 0.411
- relative viability (LOU-NH91; first compound 0.5 µM): 0.514
- relative viability (NCI-H727; first compound 0.005 µM): 0.574
- relative viability (NCI-H727; first compound 0.01581 µM): 0.386
- relative viability (NCI-H727; first compound 0.05 µM): 0.476
- relative viability (NCI-H727; first compound 0.1581 µM): 0.4
- relative viability (NCI-H727; first compound 0.5 µM): 0.463
- relative viability (NCI-H2087; first compound 0.005 µM): 0.254
- relative viability (NCI-H2087; first compound 0.01581 µM): 0.25
- relative viability (NCI-H2087; first compound 0.05 µM): 0.234
- relative viability (NCI-H2087; first compound 0.1581 µM): 0.195
- relative viability (NCI-H2087; first compound 0.5 µM): 0.174
- relative viability (LCLC-103H; first compound 0.005 µM): 0.568
- relative viability (LCLC-103H; first compound 0.01581 µM): 0.487
- relative viability (LCLC-103H; first compound 0.05 µM): 0.413
- relative viability (LCLC-103H; first compound 0.1581 µM): 0.436
- relative viability (LCLC-103H; first compound 0.5 µM): 0.373
- relative viability (NCI-H650; first compound 0.005 µM): 0.595
- relative viability (NCI-H650; first compound 0.01581 µM): 0.513
- relative viability (NCI-H650; first compound 0.05 µM): 0.34
- relative viability (NCI-H650; first compound 0.1581 µM): 0.249
- relative viability (NCI-H650; first compound 0.5 µM): 0.176
- relative viability (NCI-H441; first compound 0.005 µM): 0.557
- relative viability (NCI-H441; first compound 0.01581 µM): 0.637
- relative viability (NCI-H441; first compound 0.05 µM): 0.597
- relative viability (NCI-H441; first compound 0.1581 µM): 0.389
- relative viability (NCI-H441; first compound 0.5 µM): 0.323
- relative viability (HCC-44; first compound 0.005 µM): 0.925
- relative viability (HCC-44; first compound 0.01581 µM): 0.928
- relative viability (HCC-44; first compound 0.05 µM): 0.418
- relative viability (HCC-44; first compound 0.1581 µM): 0.379
- relative viability (HCC-44; first compound 0.5 µM): 0.255
- relative viability (NCI-H1395; first compound 0.005 µM): 0.703
- relative viability (NCI-H1395; first compound 0.01581 µM): 0.633
- relative viability (NCI-H1395; first compound 0.05 µM): 0.434
- relative viability (NCI-H1395; first compound 0.1581 µM): 0.447
- relative viability (NCI-H1395; first compound 0.5 µM): 0.388
- relative viability (HARA; first compound 0.005 µM): 0.102
- relative viability (HARA; first compound 0.01581 µM): 0.102
- relative viability (HARA; first compound 0.05 µM): 0.0829
- relative viability (HARA; first compound 0.1581 µM): 0.0658
- relative viability (HARA; first compound 0.5 µM): 0.0703
- relative viability (EMC-BAC-2; first compound 0.005 µM): 0.302
- relative viability (EMC-BAC-2; first compound 0.01581 µM): 0.288
- relative viability (EMC-BAC-2; first compound 0.05 µM): 0.242
- relative viability (EMC-BAC-2; first compound 0.1581 µM): 0.233
- relative viability (EMC-BAC-2; first compound 0.5 µM): 0.168
- relative viability (201T; first compound 0.005 µM): 0.886
- relative viability (201T; first compound 0.01581 µM): 0.944
- relative viability (201T; first compound 0.05 µM): 0.911
- relative viability (201T; first compound 0.1581 µM): 0.837
- relative viability (201T; first compound 0.5 µM): 0.706
- relative viability (NCI-H23; first compound 0.005 µM): 0.362
- relative viability (NCI-H23; first compound 0.01581 µM): 0.32
- relative viability (NCI-H23; first compound 0.05 µM): 0.243
- relative viability (NCI-H23; first compound 0.1581 µM): 0.55
- relative viability (NCI-H23; first compound 0.5 µM): 0.244
- relative viability (NCI-H3122; first compound 0.005 µM): 0.389
- relative viability (NCI-H3122; first compound 0.01581 µM): 0.407
- relative viability (NCI-H3122; first compound 0.05 µM): 0.299
- relative viability (NCI-H3122; first compound 0.1581 µM): 0.237
- relative viability (NCI-H3122; first compound 0.5 µM): 0.161
- relative viability (NCI-H2023; first compound 0.005 µM): 0.238
- relative viability (NCI-H2023; first compound 0.01581 µM): 0.223
- relative viability (NCI-H2023; first compound 0.05 µM): 0.176
- relative viability (NCI-H2023; first compound 0.1581 µM): 0.101
- relative viability (NCI-H2023; first compound 0.5 µM): 0.0955
- relative viability (NCI-H596; first compound 0.005 µM): 1.03
- relative viability (NCI-H596; first compound 0.01581 µM): 0.945
- relative viability (NCI-H596; first compound 0.05 µM): 0.712
- relative viability (NCI-H596; first compound 0.1581 µM): 0.589
- relative viability (NCI-H596; first compound 0.5 µM): 0.469
